Measured values from patent US20230192700A1, “PYRAZOLOPYRAZINES ACTING ON CANCERS VIA INHIBITION OF CDK12” (Bayer Aktiengesellschaft, priority 2020, published 2023).

Experiments:
CYCLIN K = target: T1, CYCLIN K (Homo sapiens, UniProt O75909); assay: CYCLIN K nuclear protein level: immunofluorescence/high content analysis in CAL-120 cells; format: cell-based; details: 24 h, nuclear CCNK staining intensity, median, read-out: CYCLIN K degradation IF, DC50- [mol/l] (median)
T1 construct: endogenous in cells; host or cells: CAL-120 human breast cancer cells (DSMZ ACC 459)
T1 sequence (O75909 whole entry): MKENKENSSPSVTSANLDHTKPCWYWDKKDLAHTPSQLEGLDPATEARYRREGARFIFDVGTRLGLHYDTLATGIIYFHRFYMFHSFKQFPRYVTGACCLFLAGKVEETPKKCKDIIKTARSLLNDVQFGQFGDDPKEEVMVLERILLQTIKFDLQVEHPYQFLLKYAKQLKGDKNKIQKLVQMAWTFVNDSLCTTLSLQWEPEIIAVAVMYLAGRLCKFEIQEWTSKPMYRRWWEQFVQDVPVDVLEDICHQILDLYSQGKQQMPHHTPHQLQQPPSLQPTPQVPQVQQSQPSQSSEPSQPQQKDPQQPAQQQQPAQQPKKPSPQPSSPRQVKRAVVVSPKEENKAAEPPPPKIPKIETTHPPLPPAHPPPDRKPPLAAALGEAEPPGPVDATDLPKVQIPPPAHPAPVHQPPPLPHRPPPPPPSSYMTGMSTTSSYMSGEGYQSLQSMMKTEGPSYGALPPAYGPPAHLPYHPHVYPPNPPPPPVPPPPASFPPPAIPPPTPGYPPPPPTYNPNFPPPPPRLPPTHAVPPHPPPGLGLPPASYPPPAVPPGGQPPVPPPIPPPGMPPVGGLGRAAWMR
T1 sequence (Q9NYV4 whole entry partner): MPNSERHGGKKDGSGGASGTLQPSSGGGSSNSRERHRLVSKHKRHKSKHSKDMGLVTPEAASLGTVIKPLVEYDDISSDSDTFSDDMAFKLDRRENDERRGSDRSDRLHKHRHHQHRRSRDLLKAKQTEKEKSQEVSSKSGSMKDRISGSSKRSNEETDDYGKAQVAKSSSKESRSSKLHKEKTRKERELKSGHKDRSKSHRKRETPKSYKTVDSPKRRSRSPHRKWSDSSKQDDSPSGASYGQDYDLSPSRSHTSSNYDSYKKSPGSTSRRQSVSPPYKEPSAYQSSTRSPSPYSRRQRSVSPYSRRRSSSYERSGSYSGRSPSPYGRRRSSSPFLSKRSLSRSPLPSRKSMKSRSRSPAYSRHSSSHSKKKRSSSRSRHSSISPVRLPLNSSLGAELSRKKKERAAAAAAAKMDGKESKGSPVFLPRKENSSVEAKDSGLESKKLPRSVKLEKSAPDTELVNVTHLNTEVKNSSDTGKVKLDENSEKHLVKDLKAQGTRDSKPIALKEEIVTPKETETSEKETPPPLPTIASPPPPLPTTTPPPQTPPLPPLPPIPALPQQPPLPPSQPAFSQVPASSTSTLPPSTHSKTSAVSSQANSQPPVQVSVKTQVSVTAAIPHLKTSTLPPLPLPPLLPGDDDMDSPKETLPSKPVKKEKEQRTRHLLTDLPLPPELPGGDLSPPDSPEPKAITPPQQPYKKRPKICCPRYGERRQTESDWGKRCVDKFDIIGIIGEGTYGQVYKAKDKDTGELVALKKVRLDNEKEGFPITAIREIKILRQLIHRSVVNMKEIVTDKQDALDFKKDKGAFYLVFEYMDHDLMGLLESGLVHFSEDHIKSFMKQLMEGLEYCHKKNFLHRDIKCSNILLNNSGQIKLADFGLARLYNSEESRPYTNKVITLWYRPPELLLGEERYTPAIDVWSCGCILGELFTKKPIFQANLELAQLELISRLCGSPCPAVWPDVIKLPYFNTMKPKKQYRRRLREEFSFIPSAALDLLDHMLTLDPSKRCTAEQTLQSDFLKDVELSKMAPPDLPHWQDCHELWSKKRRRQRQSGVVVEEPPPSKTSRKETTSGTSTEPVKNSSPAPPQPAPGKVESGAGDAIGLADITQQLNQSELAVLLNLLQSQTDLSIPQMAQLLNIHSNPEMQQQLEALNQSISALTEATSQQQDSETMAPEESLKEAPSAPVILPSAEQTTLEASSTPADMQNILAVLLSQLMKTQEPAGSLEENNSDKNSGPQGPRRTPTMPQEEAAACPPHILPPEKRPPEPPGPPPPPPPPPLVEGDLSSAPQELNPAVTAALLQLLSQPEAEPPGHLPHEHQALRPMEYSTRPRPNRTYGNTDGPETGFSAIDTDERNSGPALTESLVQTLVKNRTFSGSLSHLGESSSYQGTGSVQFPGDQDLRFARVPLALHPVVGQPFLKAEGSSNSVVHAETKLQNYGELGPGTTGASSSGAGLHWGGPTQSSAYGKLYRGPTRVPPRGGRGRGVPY
Description: 7. CYCLIN K Nuclear Protein Level: Immunofluorescence/High Content Analysis
In the context of the present invention, the term “DC50 Cyclin K” refers to the DC50 values obtained according to the assay described in this section (7) herein below, i.e. the DC50 values for the degradation of Cyclin K.
(§1) CAL-120 human breast cancer cells (DSMZ ACC 459) are seeded in 1536-well microtiter plates (800 cells per well) containing 50 nanoL of compounds in Dose-Response. Control wells received DMSO or Reference Example 1. Plates are then incubated for 24 h at 37° C. in an humidified incubator and fixed with 4% PFA for 10 min. Then immunofluorescence (IF) against CYCLIN K (ThermoFisher Scientific CCNK Antibody # PA5-85020, rabbit, 1:200 dilution) is performed using standard IF protocols. Cells are then stained with Hoechst 33342 (Life Technologies, H-1399, 0.1 microg/mL) and imaged on an automated confocal microscopy system (e.g. Perkin Elmer Opera Phenix). Nuclear and cytoplasmic intensity as well as the nuclear/cytoplasmic intensity ratio is determined by automated image analysis using custom generated scripts (MetaXpress). Data is then transferred to Genedata Screener software, normalized to DMSO and control and DC50 values (degrading concentration to achieve 50% reduction of nuclear CCNK staining intensity relative to controls) are reported.

CDK12 = target: T2, CDK12 (Homo sapiens, UniProt Q9NYV4); assay: CDK12 nuclear protein level: immunofluorescence/high content analysis in CAL-120 cells; format: cell-based
T2 construct: endogenous in cells; host or cells: CAL-120 human breast cancer cells (DSMZ ACC 459)
T2 sequence (Q9NYV4 whole entry): as the sequence (Q9NYV4 whole entry partner) above
T2 sequence (O75909 whole entry partner): as the sequence (O75909 whole entry) above
Description: 6. CDK12 Nuclear Protein Level: Immunofluorescence/High Content Analysis
In the context of the present invention, the term “DC50 CDK12” refers to the DC50 values obtained according to the assay described in this section (6) herein below, i.e. the DC50 values for the degradation of CDK12.:
as §1, with “CDK12 (CellSignalling CDK12” for “CYCLIN K (ThermoFisher Scientific CCNK”, “#11973,” for “# PA5-85020,”, “1:100” for “1:200”, “CDK12” for “CCNK”

CDK12/CyclinK = target: T3, CDK12/CyclinK (Homo sapiens, UniProt Q9NYV4); assay: CDK12/CycK high ATP kinase assay (TR-FRET); format: biochemical; details: 2 mM ATP (high ATP); median; read-out: CDK12/CyclinK, 2 mM ATP (high ATP), IC50 - [mol/l] (median)
T3 construct: His-CDK12 (aa Q696-S1082); made in house; host or cells: Hi-5 insect cells (baculovirus co-infection with CycK and yeast CAK1)
T3 sequence (Q9NYV4 with tags, fused parts or gaps): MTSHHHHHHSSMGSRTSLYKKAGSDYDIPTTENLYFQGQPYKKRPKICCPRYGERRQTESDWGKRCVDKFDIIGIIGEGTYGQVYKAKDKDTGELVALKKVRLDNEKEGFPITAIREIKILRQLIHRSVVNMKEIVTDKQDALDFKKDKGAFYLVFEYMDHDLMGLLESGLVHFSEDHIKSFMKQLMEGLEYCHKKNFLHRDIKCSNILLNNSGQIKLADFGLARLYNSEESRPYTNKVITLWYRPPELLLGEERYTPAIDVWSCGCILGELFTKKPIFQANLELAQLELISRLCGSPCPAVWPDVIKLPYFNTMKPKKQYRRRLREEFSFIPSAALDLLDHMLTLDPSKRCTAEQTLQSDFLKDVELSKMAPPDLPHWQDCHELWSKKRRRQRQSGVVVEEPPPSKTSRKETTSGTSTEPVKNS
T3 sequence (O75909 with tags, fused parts or gaps partner limits assumed): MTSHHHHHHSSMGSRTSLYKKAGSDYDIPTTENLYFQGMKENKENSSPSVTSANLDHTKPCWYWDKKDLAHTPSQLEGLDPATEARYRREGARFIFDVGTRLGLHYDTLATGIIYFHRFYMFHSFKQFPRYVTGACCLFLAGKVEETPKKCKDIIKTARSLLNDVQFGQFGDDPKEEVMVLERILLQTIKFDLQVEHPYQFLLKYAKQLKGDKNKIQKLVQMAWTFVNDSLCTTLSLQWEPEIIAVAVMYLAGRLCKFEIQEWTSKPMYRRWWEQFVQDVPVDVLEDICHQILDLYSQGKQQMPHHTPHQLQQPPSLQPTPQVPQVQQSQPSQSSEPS
From the text: 2.2 CDK12/CycK high ATP Kinase Assay
In the context of the present invention, the term “IC50 CDK12 hATP” refers to the ICso values obtained according to the assay described in this section (2.2) herein below, i.e. the IC50 values for the inhibition of CDK12 at high ATP.
CDK12/CycK -inhibitory activity of compounds of the present invention at 2 millimol/L adenosine-tri-phosphate (ATP) was quantified employing the TR-FRET (TR-FRET=Time Resolved Fluorescence Energy Transfer) based CDK12/CycK activity inhibition assay as described in the following paragraphs.
A complex of human recombinant CDK12 and human recombinant CycK (both N-terminally His-tagged, expression and purification as described above) was used as enzyme. As substrate for the kinase reaction biotinylated peptide biotin-Ahx-KFELLPTPPLSPSRRSGL (C-terminus in amid form) was used which can be purchased e.g. form the company Biosyntan (Berlin-Buch, Germany).
For the assay 50 nanoL of a 100 fold concentrated solution of the test compound in DMSO was pipetted into either a black low volume 384 well microtiter plate or a black 1536 well microtiter plate (both Greiner Bio-One, Frickenhausen, Germany), 2 microL of a solution of CDK12/CycK in aqueous assay buffer [25 millimol/L HEPES pH 7.5, 20 millimol/L MgCl2, 5 millimol/L β-glycerophosphate, 2 millimol/L EGTA, 1.0 millimol/L dithiothreitol, 0.01% (v/v) Nonidet-P40 (Sigma), 0.01% (w/v) bovine serum albumin] were added and the mixture was incubated for 15 min at 22° C. to allow pre-binding of the test compounds to the enzyme before the start of the kinase reaction. Then the kinase reaction was started by the addition of 3 microL of a solution ATP (3.33 millimol/L=>final conc. in the 5 microL assay volume is 2 millimol/L) and substrate (1.67 micromol/L=>final conc. in the 5 microL assay volume is 1 micromol/L) in assay buffer and the resulting mixture was incubated for a reaction time of 60 min at 22° C. The concentration of CDK12/CycK was adjusted depending of the activity of the enzyme lot and was chosen appropriate to have the assay in the linear range, typical concentrations were about 0.75 nanomol/L. The reaction was stopped by the addition of 3 microL of a solution of TR-FRET detection reagents (125 nanomol/L streptavidine-XL665 [Cisbio Bioassays, Codolet, France] and 0.67 nanomol/L anti-Phospho-c-Myc (Ser 62) (E1J4K)-antibody from Cell Signalling [#13748] and 2 nanomol/L LANCE EU-W1024 labeled anti-rabbit IgG antibody [Perkin-Elmer, product no. 0083]) in an aqueous EDTA-solution (133 millimol/L EDTA, 0.27% (w/v) bovine serum albumin in 66.7 millimol/L HEPES pH 7.5).
The resulting mixture was incubated 1 h at 22° C. to allow the formation of complex between the phosphorylated biotinylated peptide and the detection reagents. Subsequently the amount of phosphorylated substrate was evaluated by measurement of the resonance energy transfer from the Eu-chelate to the streptavidine-XL. Therefore, the fluorescence emissions at 620 nm and 665 nm after excitation at 350 nm was measured in a TR-FRET reader, e.g. a Pherastar FS (BMG Labtechnologies, Offenburg, Germany) or a Viewlux (Perkin-Elmer). The ratio of the emissions at 665 nm and at […] was taken as the measure for the amount of phosphorylated substrate. The data were normalised (enzyme reaction without inhibitor=0% inhibition, all other assay components but no enzyme=100% inhibition).

Question: For `CN1CCC(n2nc(NCc3nc4c(OC(F)(F)F)cccc4[nH]3)c3ncc(C4CC4)nc32)CC1` [Example 5, 6-cyclopropyl-1-(1-methylpiperidin-4-yl)-N-{[4-(trifluoromethoxy)-1H-benzimidazol-2-yl]methyl}-1H-pyrazolo[3,4-b]pyrazin-3-amine], which DC50 (CYCLIN K) is on record?
Answer: 3.46 nM

Question: And the DC50 (CDK12; CAL-120 cells, 24 h, nuclear CDK12 staining intensity, median, read-out: CDK12 degradation IF DC50 - [mol/l] (median))?
Answer: 83.4 nM

Question: What about the “(IC50 CDK12 high ATP) to (Degradation DC50 CDK12) ratio” value (CDK12; ratio of IC50 CDK12 hATP (2 mM ATP) to DC50 CDK12 (IF, CAL-120)) of the same molecule?
Answer: >239

Question: And the IC50 (CDK12/CyclinK)?
Answer: > 20000 nM
